Data: PubChem BioAssay AID179 (DTP/NCI, 2004)
Activity calls are given as the source filed them.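 How the source made its calls: active means compounds giving half or more protection of infected cells from virus-caused growth loss, again on retest; inactive means the rest.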

System: CEM cells HIV-1 protection, formazan growth assay
Assay: NCI AIDS Antiviral Assay
Details: for IC50: measured here: growth of uninfected CEM cells
In short: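 Human CEM cells, uninfected and HIV-1-infected, received five drug concentrations, and growth was read by soluble formazan assay. Compounds giving at least 50% protection were retested; reproducible 100% protection defined confirmed active.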

SMILES	EC50	IC50	outcome
CCN(CC)Cc1cc(O)c(CN(CC)CC)cc1O	> 891 µM	72.4 µM	–
O=C(Nc1ccc(C2=NCC(O)CN2)cc1)c1ccc(C(=O)Nc2ccc(C3=NCC(O)CN3)cc2)cc1 (centres undefined)	12.9 µM	> 200 µM	–
CSc1c(C#N)c2n(c3ccccc13)c1ccccc1[n+]2C	> 100 µM	6.76 µM	–
C=CCC12CC(C)OC1=Nc1ccccc1NC2=O (centres undefined)	> 200 µM	> 200 µM	–
CCOC(=O)c1c(NC(=O)c2cccs2)sc2c1CCCC2	> 151 µM	> 151 µM	–
O=C1OCCOCCSCCOCCOC(=O)c2cccc1n2	> 537 µM	37.2 µM	–
CCCCNC1C2CCC(C)(C1O)C2(C)C (centres undefined)	> 200 µM	174 µM	–
O=C(NC(=O)C(Cc1ccccc1)c1ccccc1)C(Cc1ccccc1)c1ccccc1 (centres undefined)	> 12 µM	> 12 µM	–
O=C(NC(Nc1ccc(F)cc1)(C(F)(F)F)C(F)(F)F)C(C(F)(F)F)C(F)(F)F	–	–	inactive
CC12CCC(CC1=O)C2(C)CCC(N)=O (centres undefined)	> 200 µM	> 200 µM	–
CC(=O)C1=C2SCCN2C(=O)CC1	> 135 µM	> 135 µM	–
CSCCCNC(=O)c1csc(-c2csc(C(CNC(=O)OC(C)(C)C)CNC(=O)OC(C)(C)C)n2)n1	> 200 µM	22.4 µM	–
Cc1c(C(=O)CC(=O)C(=O)Nc2ccccc2C(F)(F)F)[n+](=O)c2ccccc2n1[O-]	> 4.57 µM	> 4.57 µM	–
Sc1ccccc1C1N(Cc2ccc(Cl)cc2)CCCN1Cc1ccc(Cl)cc1	> 100 µM	5.75 µM	–
CCOC(=O)/C(=C/c1ccc(OCc2ccccc2)cc1)P(=O)(OCC)OCC	> 44.7 µM	4.27 µM	–
COc1cc(C=C2C(=O)NC(=O)NC2=O)cc(OC)c1OC	> 427 µM	257 µM	–
O=C(NCCCNC(=O)c1ccccc1O)c1ccccc1O	> 200 µM	69.2 µM	–
Cc1cc(C)c2c(c1)C(=O)/C(=C/c1ccccc1C(=O)O)C2	–	–	inactive
CCN1CCN(c2nc3ccccc3c3c2CCOc2ccccc2-3)CC1	–	–	inactive
O=c1[nH]c2ccc([N+](=O)[O-])cc2nc1/C=C(\O)c1ccccc1	> 200 µM	> 200 µM	–
OCC(c1ccccc1)[P+](c1ccccc1)(c1ccccc1)c1ccccc1 (centres undefined)	> 200 µM	11.2 µM	–
Cc1cc(S(=O)(=O)NC2=NCc3c(F)cccc3N2)c(S)cc1Cl	> 97.7 µM	72.4 µM	–
CCOc1cc2c(cc1O)/C(=N/NS(=O)(=O)c1ccc(C)cc1)C[C@@H]1[C@@H]2CC[C@]2(C)[C@@H](O)CC[C@@H]12	> 200 µM	0.229 µM	–

SMILES	EC50	IC50	outcome
O=[As](O)(O)c1cc(N=Nc2ccc(-c3ccc(N=Nc4cc([As](=O)(O)O)c(O)cc4O)cc3)cc2)c(O)cc1O	6.61 µM	7.76 µM	–
COC(=O)C1=C(C)N2[C@H](C(=O)O)CO[C@@]2(C)[C@H](C(=O)OC)[C@H]1c1cccc([N+](=O)[O-])c1	> 200 µM	> 200 µM	–
COc1ccc2nc3cccc([N+](=O)[O-])c3c(NC(C)CN(C)C)c2c1 (centres undefined)	> 20 µM	2.29 µM	–
CC1(C)Oc2ncnc(N)c2C1c1ccccc1 (centres undefined)	> 1020 µM	457 µM	–
COC1O[C@H]2CCN(C(=O)OCc3ccccc3)[C@H]2[C@H]1OCc1ccccc1 (some centres undefined)	> 35.5 µM	> 35.5 µM	–
COP(=O)(CCC1OCCO1)OC	> 200 µM	> 200 µM	–
Cc1ccc(S(=O)(=O)NC(=O)Nc2sc(=S)c3c(c2C#N)CCCC3)cc1	> 309 µM	58.9 µM	–
Nc1c([N+](=O)[O-])nc(Cl)c2nncn12	> 234 µM	120 µM	–
O=C(NCCc1ccccc1)/C(=C\c1ccc(Cl)cc1Cl)NC(=O)c1ccccc1	> 200 µM	> 200 µM	–
COc1ccc(S(=O)(=O)O)cc1-n1nc(C(=O)Nc2ccccc2)n[n+]1-c1cc(S(=O)(=O)[O-])ccc1OC	> 200 µM	> 200 µM	–
COc1ccc2c(c1)[n+](=O)c(C(=O)C/C(=N/NC(=O)C[N+](C)(C)C)C(=O)Nc1cccc(C)c1C)c(C)n2O	> 6.31 µM	> 6.31 µM	–
OCC(O)COc1ccc(F)cc1 (centres undefined)	> 1350 µM	> 1350 µM	–
CCN(C(=O)c1ccc([N+](=O)[O-])cc1)C(c1ccccc1)P(=O)(c1ccccc1)c1ccccc1 (centres undefined)	–	–	inactive
O=C(Nc1ccc(Cl)c(Cl)c1)C1C(=O)N(c2ccc(Cl)c(Cl)c2)C(=O)/C1=N\O (centres undefined)	–	–	inactive
CCc1c(C)c(C#N)c(=S)n(C2OC(CO)C(O)C(O)C2O)c1C (centres undefined)	> 200 µM	> 200 µM	–
COc1ccc(CC(CC(=O)O)NC(C)=O)cc1 (centres undefined)	> 1000 µM	> 1000 µM	–
CCCCCCCCCCCCCC(=O)OC1C(C)C2(O)C(C=C(CO)CC3(O)C(O)C(C)=CC32)C2C(C)(C)C12OC(C)=O (centres undefined)	–	–	active
O=C(O)c1cc2ccccc2oc1=O	> 1320 µM	> 1320 µM	–
Nc1ncnc2c1ncn2C1OC2CSCC2(O)C1O (centres undefined)	> 200 µM	138 µM	–
CCC1(c2ccccc2)OCC(=O)NC1=O (centres undefined)	> 200 µM	> 200 µM	–
CCNc1nc2c(=O)n(C)c(=O)n(C)c2s1	> 186 µM	> 186 µM	–
O=C1C(Cl)N(c2ccccc2Cl)C1c1c[nH]c2ccccc12 (centres undefined)	> 398 µM	> 200 µM	–
